This note sets out measurements from PubChem BioAssay (NCI).

Test systems include T-47D breast; OVCAR-4 ovarian; UACC-257 melanoma; SR leukemia; HT29 colon; MDA-MB-231 breast; MALME-3M melanoma; MDA-N; CCRF-CEM leukemia; HCT-116 colon; COLO 205 colon; 786-0 renal; NCI-H522 lung; MCF7 breast; A498 renal; SK-MEL-2 melanoma; M14 melanoma; UACC-62 melanoma; HCC-2998 colon.
Experiment in all cases: DTP human tumour cell line panel, 48 h

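Where inhibition never reached the appropriate level, the endpoint shown equals the highest concentration tested. Otherwise, values were interpolated linearly from a five-concentration, 48-hour dose response in 96-well plates. TGI marks complete inhibition of growth.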

The term TGI denotes the concentration at which net growth stops. Low readings indicate more potent growth arrest, high ones less potent growth arrest. As for `C=CCc1cc(C=C(C#N)C#N)cc(OC)c1O`, the TGI with T-47D breast, in the assay with OVCAR-4 ovarian, in the assay with UACC-257 melanoma, in the assay on SR leukemia, in the assay with HT29 colon and with MDA-MB-231 breast was > 100 µM throughout. Also, the TGI in the assay on MALME-3M melanoma, with MDA-N, in the assay on CCRF-CEM leukemia, with HCT-116 colon, in the assay on COLO 205 colon and in the assay with 786-0 renal was > 100 µM in each case. Moreover, the TGI in the assay with NCI-H522 lung, in the assay on MCF7 breast, with A498 renal, with SK-MEL-2 melanoma, in the assay with M14 melanoma and with UACC-62 melanoma was > 100 µM each time.
As to `COC(=O)c1ccc(NCc2c(O)ccc(O)c2Br)cc1Cl`, the TGI in the assay with T-47D breast was 43.3 µM; in the assay with OVCAR-4 ovarian, 44.2 µM; in the assay on UACC-257 melanoma, 83.8 µM; in the assay with HT29 colon, 40.2 µM; in the assay on MDA-MB-231 breast, 29.4 µM; in the assay with MALME-3M melanoma, 33.2 µM. The TGI in the assay on MDA-N was 26 µM; in the assay on CCRF-CEM leukemia, > 100 µM; with HCT-116 colon it was 33.3 µM; in the assay on COLO 205 colon it was 33.4 µM; in the assay on 786-0 renal, 32.6 µM; with NCI-H522 lung, 3.51 µM. Also, the TGI in the assay on MCF7 breast was 32.2 µM; in the assay on A498 renal it was > 100 µM; with HCC-2998 colon, 39.4 µM; with SK-MEL-2 melanoma it was 40.8 µM; in the assay with M14 melanoma, 33.3 µM; in the assay on UACC-62 melanoma, 30.3 µM.
`Cc1cc(C)c2c(c1)C1=NCCN1C2(O)c1ccc(Cl)cc1` (stereo not drawn): the TGI in the assay with T-47D breast worked out at 41.7 µM; in the assay on OVCAR-4 ovarian, 29.7 µM; in the assay with UACC-257 melanoma it was 31.9 µM; in the assay with SR leukemia, 62 µM; in the assay with HT29 colon, 31.5 µM; in the assay with MDA-MB-231 breast, 28.2 µM. Besides, the TGI stood at 28.3 µM in the assay with MDA-N; 54.7 µM in the assay on CCRF-CEM leukemia; 26 µM in the assay with HCT-116 colon; 29 µM in the assay with COLO 205 colon; 29.6 µM in the assay with 786-0 renal; 34.3 µM in the assay on MCF7 breast. The TGI in the assay on A498 renal was 28.6 µM; with SK-MEL-2 melanoma it was 34.7 µM; in the assay with M14 melanoma, 28.4 µM; with UACC-62 melanoma, 29.4 µM.
For the compound `CCCCc1ccc(-n2sc3ncc([N+](=O)[O-])cc3c2=O)cc1`, the TGI with T-47D breast was determined as 25.9 µM; in the assay with OVCAR-4 ovarian, 35.2 µM; with UACC-257 melanoma, 50.9 µM; in the assay with SR leukemia, 45.9 µM; in the assay on HT29 colon it was 26.7 µM; in the assay with MDA-MB-231 breast, 23.5 µM. Further, the TGI in the assay on MALME-3M melanoma came to 21.7 µM; in the assay on MDA-N, 28 µM; in the assay with CCRF-CEM leukemia, 32.4 µM; with HCT-116 colon, 21 µM; in the assay with COLO 205 colon it was 32.3 µM; with 786-0 renal, 28.2 µM. Besides, the TGI was 9.36 µM in the assay with NCI-H522 lung; 40.5 µM in the assay on MCF7 breast; 27.6 µM in the assay on HCC-2998 colon; 7.43 µM with SK-MEL-2 melanoma; 43.7 µM with M14 melanoma; 21.8 µM in the assay with UACC-62 melanoma.
On to `O=C(OC[C@H]1C[C@H]2C(=O)CCC[C@H]2O1)c1ccccc1`, for which the TGI with T-47D breast, in the assay with OVCAR-4 ovarian, in the assay with UACC-257 melanoma, in the assay with SR leukemia, in the assay with HT29 colon and in the assay with MDA-MB-231 breast was > 100 µM throughout. In addition, the TGI in the assay on MDA-N, in the assay on CCRF-CEM leukemia, with HCT-116 colon, in the assay with COLO 205 colon, in the assay on 786-0 renal and in the assay with NCI-H522 lung was > 100 µM in each case. The TGI in the assay with MCF7 breast, with A498 renal, in the assay with SK-MEL-2 melanoma, in the assay on M14 melanoma and with UACC-62 melanoma was > 100 µM in each case.
Regarding `COC(CC1(/C=C/O[Si](C(C)C)(C(C)C)C(C)C)C(=O)N(COCC[Si](C)(C)C)c2ccccc21)OC` (stereo not drawn), the TGI in the assay with T-47D breast, in the assay on OVCAR-4 ovarian, in the assay on UACC-257 melanoma, in the assay on SR leukemia, in the assay with HT29 colon and in the assay with MDA-MB-231 breast was > 100 µM throughout. Further, the TGI in the assay on MDA-N is > 100 µM; in the assay with CCRF-CEM leukemia, > 100 µM; in the assay with HCT-116 colon it was 71.6 µM; in the assay on COLO 205 colon it was > 100 µM; in the assay with 786-0 renal, > 100 µM; with NCI-H522 lung, 23.6 µM. For the same compound, the TGI in the assay on A498 renal was > 100 µM; in the assay with HCC-2998 colon, > 100 µM; in the assay with SK-MEL-2 melanoma it was 26.8 µM; in the assay with M14 melanoma, > 100 µM; in the assay on UACC-62 melanoma, 69.4 µM.
On to `COc1ccc(/C=C/C(=N/NC(=O)N/N=C(/C=C/c2ccc(OC)cc2)C(C)(C)CN2CCCCC2)C(C)(C)CN2CCCCC2)cc1`, for which the TGI worked out at 4.1 µM with T-47D breast; 3.96 µM in the assay with OVCAR-4 ovarian; 3.31 µM in the assay on UACC-257 melanoma; 0.679 µM in the assay with SR leukemia; 3.11 µM with HT29 colon; 3.42 µM with MALME-3M melanoma. For the same compound, the TGI in the assay on MDA-N was determined as 3.06 µM; in the assay with CCRF-CEM leukemia, 3.39 µM; in the assay on HCT-116 colon, 2.6 µM; in the assay on COLO 205 colon, 3.1 µM; in the assay with 786-0 renal it was 3.15 µM; in the assay on NCI-H522 lung, 3.59 µM. Also, the TGI with MCF7 breast was 6.26 µM; in the assay on A498 renal it was 3.73 µM; in the assay with HCC-2998 colon it was 3.42 µM; with SK-MEL-2 melanoma it was 3.1 µM; with M14 melanoma, 3.12 µM.
For the compound `C[n+]1c2ccccc2n2c3ccccc3c(NCCc3ccccn3)c(C#N)c21`, the TGI is 13.7 µM with T-47D breast; 5.93 µM in the assay with OVCAR-4 ovarian; 16.6 µM with UACC-257 melanoma; > 100 µM in the assay on HT29 colon; 6.83 µM in the assay on MDA-MB-231 breast; 12 µM in the assay on MALME-3M melanoma. Also, the TGI with MDA-N was determined as 4.87 µM; in the assay with CCRF-CEM leukemia, 9.11 µM; in the assay with HCT-116 colon, 11.8 µM; in the assay on COLO 205 colon, 5.88 µM; in the assay with 786-0 renal it was 7.58 µM; in the assay with NCI-H522 lung, 3.95 µM. The TGI in the assay on MCF7 breast came to 2.97 µM; in the assay on A498 renal it was 14 µM; in the assay on HCC-2998 colon, 1.24 µM; in the assay on SK-MEL-2 melanoma it was 7.73 µM; in the assay with M14 melanoma, 6.56 µM.
